Test results published in patent US20250230171A1 (MOMA Therapeutics, Inc., priority 2023, published 2025).
Like-named read-outs stand apart in the source and are kept apart here.

Assays:
[1] = tested on: DLD1 WT cells; assay: 7-day cell viability assay (CellTiter-Glo), DLD1 parental (WT); assay type: cell-based, human; details: 7-day CellTiter-Glo, n=2
[2] = tested on: DLD1 BRCA2 (−/−) cells; assay: 7-day cell viability assay (CellTiter-Glo), DLD1 BRCA2 (−/−); assay type: cell-based, human; details: 7-day CellTiter-Glo, n=2, read-out: Viability IC50 (uM) DLD1 BRCA2 null
In short: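 7-day growth assay in DLD1 cells with or without BRCA2; seeding densities chosen to keep log-linear growth. Compound: 10 uM top, 3-fold, 9 points. Endpoint: CTG ATP luminescence at RT.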

[3] = biological target: biotinylated Avi-POLθ[2-894] (Homo sapiens (Human), UniProt O75417); assay: POLθ ATPase assay (ADP-Glo); details: POLθ ATPase, ADP-Glo; n=2; read-out: Biochemical ATPase ADPGlo IC50
Chain of biotinylated Avi-POLθ[2-894] (O75417 2-894): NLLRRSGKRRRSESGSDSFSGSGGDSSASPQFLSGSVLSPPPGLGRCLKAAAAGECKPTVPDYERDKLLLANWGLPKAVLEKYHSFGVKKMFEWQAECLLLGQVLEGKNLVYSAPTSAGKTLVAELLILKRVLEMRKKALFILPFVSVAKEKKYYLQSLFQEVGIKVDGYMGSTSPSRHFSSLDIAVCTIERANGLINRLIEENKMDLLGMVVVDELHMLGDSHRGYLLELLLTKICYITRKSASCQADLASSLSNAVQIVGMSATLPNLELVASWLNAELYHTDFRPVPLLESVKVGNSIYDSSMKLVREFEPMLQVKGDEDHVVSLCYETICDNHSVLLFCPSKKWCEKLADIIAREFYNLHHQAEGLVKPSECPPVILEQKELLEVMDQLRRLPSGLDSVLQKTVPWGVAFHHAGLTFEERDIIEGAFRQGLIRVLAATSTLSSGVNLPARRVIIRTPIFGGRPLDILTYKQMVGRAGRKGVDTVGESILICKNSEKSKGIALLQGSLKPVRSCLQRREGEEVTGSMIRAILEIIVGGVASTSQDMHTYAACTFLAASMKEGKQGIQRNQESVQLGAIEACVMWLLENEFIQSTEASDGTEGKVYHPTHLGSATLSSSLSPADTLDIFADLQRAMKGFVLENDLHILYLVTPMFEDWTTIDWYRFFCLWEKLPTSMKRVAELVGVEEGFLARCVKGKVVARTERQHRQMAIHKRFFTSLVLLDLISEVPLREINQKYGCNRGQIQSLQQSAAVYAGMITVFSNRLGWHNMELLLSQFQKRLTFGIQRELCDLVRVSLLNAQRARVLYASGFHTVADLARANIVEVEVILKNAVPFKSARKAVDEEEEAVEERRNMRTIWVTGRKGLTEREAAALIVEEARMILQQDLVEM

Molecule	IC50 [1]	IC50 [2]	IC50 [3]	IC50 ([1]; Homo sapiens, DLD-1, 168 h)	IC50 ([2]; Homo sapiens, DLD-1, 168 h)
COc1cnc(C(F)F)c(C(=O)N2Cc3nc(NC(=O)c4cnc(C)cc4-c4cc(Cl)ncc4OC)sc3C2)n1 [Example 503, 2′-Chloro-N-(5-(3-(difluoromethyl)-6-methoxypyrazine-2-carbonyl)-5,6-dihydro-4H-pyrrolo[3,4-d]thiazol-2-yl)-5′-methoxy-6-methyl-[4,4′-bipyridine]-3-carboxamdie]	≥ 10 µM	0.001 to 0.1 µM	1 to 15 nM		
COc1nc(OC)c(-c2cc(C)ncc2C(=O)Nc2nc3c(s2)CN(C(=O)c2ccc(C(F)(F)F)nc2OC)C3)cc1Cl [Example 1036, 5-chloro-2,6-dimethoxy-N-(5-(2-methoxy-6-(trifluoromethyl)nicotinoyl)-5,6-dihydro-4H-pyrrolo[3,4-d]thiazol-2-yl)-6′-methyl-[3,4′-bipyridine]-3′-carboxamide]			1 to 15 nM	≥ 10 µM	0.001 to 0.1 µM
COc1cnc(Cl)cc1-c1cc(C)ncc1C(=O)Nc1nc2c(s1)C(C)N(C(=O)c1ccc(C(F)(F)F)nc1OC)C2 (stereo not drawn) [Example 1040, 2′-chloro-5′-methoxy-N-(S-(2-methoxy-6-(trifluoromethyl)nicotinoyl)-6-methyl-5,6-dihydro-4H-pyrrolo[3,4-d]thiazol-2-yl)-6-methyl-[4,4′-bipyridine]-3-carboxamide]			1 to 15 nM	≥ 10 µM	0.001 to 0.1 µM
COc1cnc(C(F)F)nc1-c1cc(C)ncc1C(=O)Nc1nc2c(s1)CN(C(=O)c1ccc(C(F)(F)F)nc1OC)C2 [Example 1042, 4-(2-(difluoromethyl)-5-methoxypyrimidin-4-yl)-N-(5-(2-methoxy-6-(trifluoromethyl)nicotinoyl)-5,6-dihydro-4H-pyrrolo[3,4-d]thiazol-2-yl)-6-methylnicotinamide]			1 to 15 nM	≥ 10 µM	0.001 to 0.1 µM
N-(5-(2-Chloro-5-(difluoromethyl)benzoyl)-5,6-dihydro-4H-pyrrolo[3,4-d]thiazol-2-yl)-4-(5-cyano-2-methoxyphenyl)-6-methylnicotinamide [Example 489]	5 to 10 µM	0.001 to 0.1 µM	1 to 15 nM		
N-(5-(4-Chloro-2-methoxybenzoyl)-5,6-dihydro-4H-pyrrolo[3,4-d]thiazol-2-yl)-4-(5-cyano-2-methoxyphenyl)-6-methylnicotinamide [Example 437]	≥ 10 µM	0.001 to 0.1 µM	1 to 15 nM		
